Laboratory results published in US20160083424A1, “COMPOSITIONS AND METHODS FOR TARGETING ANTIGEN-PRESENTING CELLS” (OSLO UNIVERSITETSSYKEHUS HF, priority 2013, published 2016).

What was measured:
Type in all cases: cell-based, human
iDCs = test: Peptide binding and internalization by fluorescence microscopy; conditions: 37° C.
Method: Then the medium was replaced with fresh medium and the cells were incubated with the peptides (5 μg/ml) for 60 min at 37° C. followed by 5 min incubation with Hoechst 33342 (Invitrogen Dynal AS, Oslo, Norway). The cells were washed twice with PBS and fixed with 4% paraformaldehyde for 15 min at 4° C. After washing, slides were covered with Dako cytomation fluorescent mounting medium and then images were taken with either epifluorescence (Leica DM RHC, Leica Microscopy As, Oslo, Norway) or confocal microscopy (Zeiss LSM 510, […]).

[1] = test system: autologous CD4 or CD8 T cells; test: Autologous stimulation of T lymphocytes by DCs exposed to targeted pp65 peptides, [3H] thymidine incorporation; conditions: semi mDCs loaded at 4° C., HLA-A2+/CMV positive donors, 5 days
Method: Peptides at a concentration of 5 μg/ml were incubated with semi mDCs from HLA-A2/CMV-positive donors for 60 min at 4° C. Subsequently, they were washed to remove unbound peptides. Autologous stimulation was done in 96-well tissue culture plates in X-vivo 15 medium. Briefly, DCs were mixed with 10^5 autologous CD4 or CD8 T cells at a DC/lymphocytes ratios of 1/5 and 1/10 in a final volume of 250 μl. Cells were incubated for 5 days and then they were pulsed with [^3H] thymidine and harvested 16 h later. [^3H] thymidine incorporation was measured in a β-scintillation counter. In some experiments, the cells were cultured for 8 days and then stained with dextramers specific for pp65 NLVPMVATV (SEQ ID NO:19) epitope.
The capacity of the NW-pp65 fusion peptide (60-mer) to activate T cells from HLA-A2+/CMV positive donors was evaluated. It should be noted that the 48-mer pp65 peptide contains both MHC class I (e.g. NLVPMVATV) (SEQ ID NO:19) and class II (e.g. AGILARNLVPMVATV (SEQ ID NO:23), FFWDANDIYRI (SEQ ID NO:24)) epitopes, allowing the detection of CD4 and CD8 T-cell responses (24-26). […] All cultures were incubated at 37° C. for 5 days and T-cell activation was determined by measuring their proliferation potential (FIG. 6A). […]

[2] = test system: CD8 T cells against NLVPMVATV epitope; test: Dextramer staining of CD8 T cells after PBMC stimulation with pp65 peptides
Method: PBMC from HLA-A2/CMV+ donors were thawed, washed and then incubated with the peptides (5 μg/ml) for 60 min at 4° C. Subsequently, the cells were washed twice and then plated at 2×10^5 cells per well in 96-well tissue culture plate. Cells were cultured for 5 days and subsequently they were pulsed with [^3H] thymidine and harvested 16 h later. In some experiments, the cells were cultured for 12 days and then stained with dextramers specific for pp65 NLVPMVATV (SEQ ID NO:19) epitope. Monocyte-depleted PBMCs were also used. To analyze primary immune responses against pp65 protein, PBMCs from HLA-A2+/CMV-negative donors were used. Autologous DCs were incubated with either NW-pp65 or GA-pp65 peptide (5 μg/ml) at 4° C. for 1 h, followed by three washes to remove unbound peptides. Subsequently, the cells were incubated with CD45RO-depleted PBMC (responder cells) and co-cultured for 10 days at ratio 1/10 (DC to responder cells) in X-vivo 15 medium supplemented with 10 ng/ml human IL-7 for 10 days. After 2 rounds of stimulation (8 days each) with autologous DC loaded with peptides, the cells were stained with dextramers specific for pp65 NLVPMVATV (SEQ ID NO:19) epitope. To test spontaneous uptake of peptides by DCs, PBMCs from HLA-A2+/CMV positive donors were incubated at 37° C. with various concentrations of untargeted or targeted pp65 peptide for 90 min. Subsequently, the cells were washed to remove unbound peptides and cultured at 37° C. for 12 days and then stained with dextramers specific for pp65 NLVPMVATV (SEQ ID NO:19) epitope.
Dextramers with CMV (NLVPMVATV) (SEQ ID NO:19) and HIV (ILKEPVHGV) (SEQ ID NO:22) HLA-A2 specific antigens were obtained from Immudex (Copenhagen, Denmark). Antibodies against human CD8, CD19 and CD56 were obtained from eBioscience (San Diego, Calif., USA). Briefly, around 10^6 cells were washed and resuspended in 50 μl staining buffer SB (PBS with 0.1% human serum albumin and 0.1% NaN3) containing 1 mg/ml aggregated α-globulin and then stained with dextramer for 10 min in the dark at room temperature. Subsequently, antibodies against CD8, CD19 and CD56 were added and incubation continued for additional 20 min. Cells were washed and resuspended in SB containing 1% paraformaldehyd and analyzed on a BD SLR II flow cytometer. The data were analyzed using FCS Express (De Novo Software, Los Angeles, Calif., USA).
Monocytes have the capacity to differentiate into macrophages or inflammatory DCs in-vitro and in-vivo (Auffray et al., (2009) Annu Rev. Immunol. 27, 669-92). Given that the NW peptide bound to blood monocytes, it was investigated whether this binding affects T-cell activation. Therefore, proliferation assays were performed with whole PBMCs. […]

[3] = test system: PBMC cultures from CMV-positive donors; test: IFN-γ production in PBMC cultures
Method: (A) PBMCs from HLA-A2+/CMV-positive donors were incubated with the indicated fusion peptides for 60 min at 4° C., washed and then incubated at 37° C. for […]. T-cell proliferation was monitored by thymidine incorporation. (B) Dextramer staining of CD8 T cells against NLVPMVATV (SEQ ID NO:19) epitope. (C) As in A and B, but monocyte-depleted PBMCs were used. (D) INF-γ and IL-10 levels in PBMC culture supernatants determined by ELISA.
Next, the immunostimulatory potential of the NW-pp65 fusion peptide was evaluated by assessing its ability to stimulate the overall IFN-γ and IL-10 production in PBMC cultures from CMV-positive donors (FIG. 8D).

NWYLPWLGTNDWGCFTWPPWQAGILARNLVPMVATVQGQNLKYQEFFWDANDIYRIFAEL [NW-60-mer, 48-mer CMV pp65 peptide fused to NW peptide]
internalization by iDCs (confocal microscopy) (iDCs): internalized
T-cell activation (proliferation, [3H]-thymidine) [1]: activated both CD8 and CD4 T cells
CTL response (dextramer staining) ([2]; monocyte-depleted PBMCs): 5.60%
CTL response (dextramer staining) ([2]; whole PBMCs, n=3): 8.85%
total amounts of secreted IFN-γ ([3]; ELISA of PBMC culture supernatants, relative to untargeted peptide, n=4): significant increase
proportion of CD8 and CD4 T cells that produced IFN-γ ([3]; PBMCs from HLA-A2+/CMV positive): significant increase
